Assay results as given in patent US6432982B1, “Benzothiophenes, and formulations and methods using same” (Eli Lilly and Company, priority 1996, dated 2002).
Marks after values point to notes of the source that are not given here.

What was measured:
[1] = system: uterus of ovariectomized (OVX) rats; assay: Uterine weight in ovariectomized rat post-menopausal model; type: in vivo, Sprague Dawley rats; conditions: for Uterine Weight % inch (Uterine Weight % increase versus the ovarierectomized controls): oral, daily for 4 days
Experimental: (§1) In the examples illustrating the methods, a post-menopausal model is used in which effects of different treatments upon circulating lipids are determined.
(§2) Seventy-five day old female Sprague Dawley rats (weight range of 200 to 225 g) are obtained from Charles River Laboratories (Portage, Mich.). The animals are either bilaterally ovariectomized (OVX) or exposed to a Sham surgical procedure at Charles River Laboratories, and then shipped after one week. Upon arrival, they are housed in metal hanging cages in groups of 3 or 4 per cage and had ad libitum access to food (calcium content approximately 0.5%) and water for one week. Room temperature is maintained at 22.2°±1.7° C. with a minimum relative humidity of 40%. The photoperiod in the room is 12 hours light and 12 hours dark.
(§3) After a one week acclimation period (therefore, two weeks post-OVX) daily dosing with test compound is initiated. 17α-ethynyl estradiol or the test compound are given orally, unless otherwise stated, as a suspension in 1% carboxymethylcellulose or dissolved in 20% cyclodextrin. Animals are dosed daily for 4 days. Following the dosing regimen, animals are weighed and anesthetized with a ketamine: Xylazine (2:1, V:V) mixture and a blood sample is collected by cardiac puncture. The animals are then sacrificed by asphyxiation with CO2, the uterus is removed through a midline incision, and a wet uterine weight is determined.

[2] = system: uterine eosinophil peroxidase; assay: Uterine Eosinophil Peroxidase (EPO) Assay; type: in vivo, Sprague Dawley rats; conditions: for Uterine Eosinophil (Vmax) (Eosinphil peroxidase Vmaxium): OVX rats, oral, daily for 4 days
Description: as §2, §3
Uteri are kept at 4° C. until time of enzymatic analysis. The uteri are then homogenized in 50 volumes of 50 mM Tris buffer (pH−8.0) containing 0.005% Triton X-100. Upon addition of 0.01% hydrogen peroxide and 10 mM O-phenylenediamine (final concentrations) in Tris buffer, increase in absorbance is monitored for one minute at 450 nm. The presence of eosonophils in the uterus is an indication of estrogenic activity of a compound. The maximal velocity of a 15 second interval is determined over the initial, linear portion of the reaction curve.

[3] = system: ovariectomized (OVX) rats; assay: Serum cholesterol analysis in ovariectomized rats; type: in vivo, Sprague Dawley rats; conditions: for Serum Cholest. % Dec. (Serum cholesterol decrease versus ovariectomized controls): oral, daily for 4 days
Experimental: as §1, §2, §3
Blood samples are allowed to clot at room temperature for 2 hours, and serum is obtained following centrifugation for 10 minutes at 3000 rpm. Serum cholesterol is determined using a Boehringer Mannheim Diagnostics high performance cholesterol assay. Briefly the cholesterol is oxidized to cholest-4-en-3-one and hydrogen peroxide. The hydrogen peroxide is then reacted with phenol and 4-aminophenazone in the presence of peroxidase to produce a p-quinone imine dye, which is read spectrophotemetrically at 500 nm. Cholesterol concentration is then calculated against a standard curve. The entire assay is automated using a Biomek Automated Workstation.

[4] = system: MCF-7 breast adenocarcinoma cells; assay: MCF-7 Proliferation Assay; type: cell-based; conditions: Homo sapiens, MCF7; tritiated thymidine incorporation, 48 hours with drug, versus the control (DMSO); read-out: IC50, inhibition of proliferation of MCF-7 cells
Experimental: MCF-7 breast adenocarcinoma cells (ATCC HTB 22) are maintained in MEM (minimal essential medium, phenol red-free, Sigma, St. Louis, Mo.) supplemented with 10% fetal bovine serum (FBS) (V/V), L-glutamine (2 mM), sodium pyruvate (1 mM), HEPES {(N-[2-hydroxyethyl]piperazine-N′-[2-ethanesulfonic acid]10 mM}, non-essential amino acids and bovine insulin (1 ug/mL) (maintenance medium). Ten days prior to assay, MCF-7 cells are switched to maintenance medium supplemented with 10% dextran coated charcoal stripped fetal bovine serum (DCC-FBS) assay medium) in place of 10% FBS to deplete internal stores of steroids. MCF-7 cells are removed from maintenance flasks using cell dissociation medium (Ca++/Mg++ free HBSS (phenol red-free) supplemented with 10 mM HEPES and 2 mM EDTA). Cells are washed twice with assay medium and adjusted to 80,000 cells/mL. Approximately 100 μL (8,000 cells) are added to flat-bottom microculture wells (Costar 3596) and incubated at 37° C. in a 5% CO2 humidified incubator for 48 hours to allow for cell adherence and equilibration after transfer. Serial dilutions of drugs or DMSO as a diluent control are prepared in assay medium and 50 μL transferred to triplicate microcultures followed by 50 μL assay medium for a final volume of 200 μL. […] Samples are counted by liquid scintillation using a Wallac BetaPlace β counter. […]

[5] = compared to the ovariectomized animals, EE2 orally at 0.1 mg/kg/day

For Cc1cc(C(=O)c2c(-c3ccc(O)cc3)sc3cc(O)ccc23)cc(C)c1OCCN1CCCCC1.Cl [compound 5, [2-(4-Hydroxyphenyl)-6-hydroxybenzo[b]thien-3-yl][4-[2-(1-piperidinyl)ethoxy]3,5-dimethylphenyl]methanone Hydrochloride], the “Uterine Weight % inch (Uterine Weight % increase versus the ovarierectomized controls)” value ([1]; dose 0.1 mg/kg) was −24.4%, the “Uterine Weight % inch (Uterine Weight % increase versus the ovarierectomized controls)” value ([1]; dose 1.0 mg/kg) was −16.4% and the “Uterine Weight % inch (Uterine Weight % increase versus the ovarierectomized controls)” value ([1]; dose 10.0 mg/kg) was 27.4%. For the same compound, the “Uterine Eosinophil (Vmax) (Eosinphil peroxidase Vmaxium)” value (“Uterine Eosinophil (Vmax)” for short) ([2]; dose 0.1 mg/kg) was 4.0, the “Uterine Eosinophil (Vmax)” value ([2]; dose 1.0 mg/kg) was 7.2 and the “Uterine Eosinophil (Vmax)” value ([2]; dose 10.0 mg/kg) was 25.9*. The “Serum Cholest. % Dec. (Serum cholesterol decrease versus ovariectomized controls)” value ([3]; dose 0.1 mg/kg) was 33.8* %, the “Serum Cholest. % Dec. (Serum cholesterol decrease versus ovariectomized controls)” value ([3]; dose 1.0 mg/kg) was 55.5* % and the “Serum Cholest. % Dec. (Serum cholesterol decrease versus ovariectomized controls)” value ([3]; dose 10.0 mg/kg) was 74.9* %. It also gave an IC50 [4] of 40 nM.
In the case of Cl.O=C(c1ccc(OCCN2CCCCC2)c(F)c1)c1c(-c2ccc(O)cc2)sc2cc(O)ccc12 [compound 1, [2-(4-Hydroxyphenyl)-6-hydroxybenzo[b]thien-3-yl][4-[2-(1-piperidinyl)ethoxy]3-fluorophenyl]methanone Hydrochloride], the “Uterine Weight % inch (Uterine Weight % increase versus the ovarierectomized controls)” value ([1]; dose 0.1 mg/kg) is reported as 18.4%, the “Uterine Weight % inch (Uterine Weight % increase versus the ovarierectomized controls)” value ([1]; dose 1.0 mg/kg) is reported as 14.9% and the “Uterine Weight % inch (Uterine Weight % increase versus the ovarierectomized controls)” value ([1]; dose 10.0 mg/kg) is reported as 12.5%. For the same compound, the “Uterine Eosinophil (Vmax)” value ([2]; dose 0.1 mg/kg) was 5.4, the “Uterine Eosinophil (Vmax)” value ([2]; dose 1.0 mg/kg) was 4.5 and the “Uterine Eosinophil (Vmax)” value ([2]; dose 10.0 mg/kg) was 2.7. For the same compound, the “Serum Cholest. % Dec. (Serum cholesterol decrease versus ovariectomized controls)” value ([3]; dose 0.1 mg/kg) was 45.1* %, the “Serum Cholest. % Dec. (Serum cholesterol decrease versus ovariectomized controls)” value ([3]; dose 1.0 mg/kg) was 59.5* % and the “Serum Cholest. % Dec. (Serum cholesterol decrease versus ovariectomized controls)” value ([3]; dose 10.0 mg/kg) was 64.1* %.
For Cc1cc(C(=O)c2c(-c3ccc(O)cc3)sc3cc(O)ccc23)cc(C(C)(C)C)c1OCCN1CCCCC1.Cl [compound 6, [2-(4-Hydroxyphenyl)-6-hydroxybenzo[b]thien-3-yl][4-[2-(1-piperidinyl)ethoxy]-3-t-butyl-5-methylphenyl]methanone Hydrochloride], the “Uterine Weight % inch (Uterine Weight % increase versus the ovarierectomized controls)” value ([1]; dose 1.0 mg/kg) was −35.7%, the “Uterine Eosinophil (Vmax)” value ([2]; dose 1.0 mg/kg) was 2.8 and the “Serum Cholest. % Dec. (Serum cholesterol decrease versus ovariectomized controls)” value ([3]; dose 1.0 mg/kg) was 55.2* %.
In the case of Cl.N#Cc1cc(C(=O)c2c(-c3ccc(O)cc3)sc3cc(O)ccc23)ccc1OCCN1CCCCC1 [compound 9, [2-(4-Hydroxyphenyl)-6-hydroxybenzo[b]thien-3-yl][4-[2-(1-piperidinyl)ethoxy]3-cyanophenyl]methanone Hydrochloride], the “Uterine Weight % inch (Uterine Weight % increase versus the ovarierectomized controls)” value ([1]; dose 10.0 mg/kg) is reported as 16.8%, the “Uterine Eosinophil (Vmax)” value ([2]; dose 10.0 mg/kg) is reported as 7.8 and the “Serum Cholest. % Dec. (Serum cholesterol decrease versus ovariectomized controls)” value ([3]; dose 10.0 mg/kg) is reported as 38.8* %.
C#C[C@]1(O)CC[C@H]2[C@@H]3CCc4cc(O)ccc4[C@H]3CC[C@@]21C [EE2, 17α-ethynyl estradiol, reference compound] was tested, and the “effect on uterine weight (in words)” value [1, 5] was “substantially greater than the uterine weight of the ovariectomized animals”, the “Uterine Weight % inch (Uterine Weight % increase versus the ovarierectomized controls)” value ([1]; dose 0.1 mg/kg) was 207.5* % and the “Uterine Eosinophil (Vmax)” value ([2]; dose 0.1 mg/kg) was 205.8*. For the same compound, the “eosinophil infiltration into the uterus (in words)” value ([2]; stromal layer of ovariectomized rat uteri) was “substantial and expected increase in eosinophil infiltration”, the “effect on serum cholesterol (in words)” value [3, 5] was “caused a decrease in serum cholesterol” and the “Serum Cholest. % Dec. (Serum cholesterol decrease versus ovariectomized controls)” value ([3]; dose 0.1 mg/kg) was 87.3* %.
In the case of Cl.O=C(c1ccc(OCCN2CCCCC2)cc1Cl)c1c(-c2ccc(O)cc2)sc2cc(O)ccc12 [compound 8, [2-(4-Hydroxyphenyl)-6-hydroxybenzo[b]thien-3-yl][4-[2-(1-piperidinyl)ethoxy]2-chlorophenyl]methanone Hydrochloride], the “Uterine Weight % inch (Uterine Weight % increase versus the ovarierectomized controls)” value ([1]; dose 10.0 mg/kg) is reported as 37.5* %, the “Uterine Eosinophil (Vmax)” value ([2]; dose 10.0 mg/kg) is reported as 12.0 and the “Serum Cholest. % Dec. (Serum cholesterol decrease versus ovariectomized controls)” value ([3]; dose 10.0 mg/kg) is reported as 42.0* %.
For Cl.O=C(c1ccc(OCCN2CCCCC2)c(Cl)c1)c1c(-c2ccc(O)cc2)sc2cc(O)ccc12 [compound 7, [2-(4-Hydroxyphenyl)-6-hydroxybenzo[b]thien-3-yl][4-[2-(1-piperidinyl)ethoxy]3-chlorophenyl]methanone Hydrochloride], the “Uterine Weight % inch (Uterine Weight % increase versus the ovarierectomized controls)” value ([1]; dose 10.0 mg/kg) was 46.1* %, the “Uterine Eosinophil (Vmax)” value ([2]; dose 10.0 mg/kg) was 30.9 and the “Serum Cholest. % Dec. (Serum cholesterol decrease versus ovariectomized controls)” value ([3]; dose 10.0 mg/kg) was 62.2* %.
